Test results taken from patent publication US20250145633A1, “SUBSTITUTED FURANOPYRIMIDINE COMPOUNDS AS PDE1 INHIBITORS” (Dart NeuroScience, LLC, priority 2017, published 2025).

molecular target: human PDE1B enzyme (Homo sapiens (Human), UniProt Q01064); experiment: IMAP TR-FRET PDE1B enzymatic assay; format: biochemical; conditions: negative log of half-maximal molar inhibitory concentration; 200 nM FAM-cAMP; values given as bins
How it was run: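 Full-length GST-tagged human PDE1B (250 pg/well) in IMAP BSA buffer with 10 U/ml calmodulin and 2.5 mM CaCl2; compound pre-incubated 5 min at room temperature, then 200 nM (final) FAM-cAMP for 30 min. IMAP binding reagent/Tb added, 1 h; TR-FRET 520/490 ratio read. IC50 from sigmoidal dose-response fit.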

Which “PDE1b (pIC50)” value does the source give for `Cc1oc2ncnc(NC3(C)CC3)c2c1C(=O)N1CCC2(CC1)SCc1ccccc12` [Example 388, 6-Methyl-N-(1-methylcyclopropyl)-5-(f{3H-spiro[2-benzothiophene-1,4′-piperidine]-1′-yl}carbonyl)furo[2,3-d]pyrimidin-4-amine] here?
Its value is greater than 8.

With `Cc1oc2ncnc(NC3(C)CC3)c2c1C(=O)NCc1ccc(C(F)(F)F)cn1` [Example 450, 6-Methyl-4-[(1-methylcyclopropyl)amino]-N-{[5-(trifluoromethyl)pyridin-2-yl]methyl}furo[2,3-d]pyrimidine-5-carboxamide] as the compound, how does the “PDE1b (pIC50)” value read?
The value was greater than 8.

How did the “PDE1b (pIC50)” value turn out when `Cc1oc2ncnc(NC3(C)CC3)c2c1C(=O)N1CCN(c2ccc(F)cc2)CC1` [Example 61, 5-[4-(4-Fluorophenyl)piperazine-1-carbonyl]-6-methyl-N-(1-methylcyclopropyl)furo[2,3-d]pyrimidin-4-amine] was run?
Its value is greater than 8.

`Cc1oc2ncnc(NC3(C)CC3)c2c1C(=O)N1CCC(c2cccc(C(F)(F)F)c2)C1` (stereo not drawn) [Example 396, 6-Methyl-N-(1-methylcyclopropyl)-5-{3-[3-(trifluoromethyl)phenyl]pyrrolidine-1-carbonyl}furo[2,3-d]pyrimidin-4-amine] was tested. Which “PDE1b (pIC50)” value did it give?
Its value is greater than 8.

With `Cc1oc2ncnc(NC3(C)CC3)c2c1C(=O)N1CCC(C)(c2ccc(F)cc2)C1` (stereo not drawn) [Example 85, 5-[3-(4-Fluorophenyl)-3-methylpyrrolidine-1-carbonyl]-6-methyl-N-(1-methylcyclopropyl)furo[2,3-d]pyrimidin-4-amine] as the compound, how does the “PDE1b (pIC50)” value read?
The value was greater than 8.

With `Cc1oc2ncnc(NC3(C)CC3)c2c1C(=O)N1CCC(c2nc(Cl)ncc2F)CC1` [Example 351, 5-[4-(2-Chloro-5-fluoropyrimidin-4-yl)piperidine-1-carbonyl]-6-methyl-N-(1-methylcyclopropyl)furo[2,3-d]pyrimidin-4-amine] as the compound, how does the “PDE1b (pIC50)” value read?
The value was greater than 8.

same assay, conditions: negative log of half-maximal molar inhibitory concentration; 200 nM FAM-cAMP; values given as bins; read-out: PDE1b (pIC50) (converted)

How did the IC50 turn out when `Cc1oc2ncnc(NC3(C)CC3)c2c1C(=O)NCc1nccs1` [Example 73, 6-Methyl-4-[(1-methylcyclopropyl)amino]-N-(1,3-thiazol-2-ylmethyl)furo[2,3-d]pyrimidine-5-carboxamide] was run?
The IC50 was 10 to 100 nM.

Which IC50 does the source give for `Cc1oc2ncnc(NC3(C)CC3)c2c1C(=O)Nc1ccc(C2CCOCC2)cn1` [Example 727, 6-Methyl-4-[(1-methylcyclopropyl)amino]-N-[5-(oxan-4-yl)pyridin-2-yl]furo[2,3-d]pyrimidine-5-carboxamide] here?
Its IC50 is 10 to 100 nM.

With `Cc1oc2ncnc(NC3(C)CC3)c2c1C(=O)NC1CCc2cccnc21` (stereo not drawn) [Example 316, N-{5H,6H,7H-Cyclopenta[b]pyridin-7-yl}-6-methyl-4-[(1-methylcyclopropyl)amino]furo[2,3-d]pyrimidine-5-carboxamide] as the compound, how does the IC50 read?
Its IC50 is 100 to 1000 nM.

Which IC50 does the source give for `Cc1oc2ncnc(NC3(C)CC3)c2c1C(=O)NC1(c2ncccn2)CC1` [Example 349, 6-Methyl-4-[(1-methylcyclopropyl)amino]-N-[1-(pyrimidin-2-yl)cyclopropyl]furo[2,3-d]pyrimidine-5-carboxamide] here?
The IC50 was 10 to 100 nM.

For `Cc1cnc(C2CCN(C(=O)c3c(C)oc4ncnc(NC5(C)CC5)c34)CC2)nc1C` [Example 391, 5-[4-(4,5-Dimethylpyrimidin-2-yl)piperidine-1-carbonyl]-6-methyl-N-(1-methylcyclopropyl)furo[2,3-d]pyrimidin-4-amine], which IC50 is on record?
Its IC50 is 10 to 100 nM.

Which IC50 does the source give for `COCc1nc2c(c(OCF)n1)CCN(C(=O)c1c(C)oc3ncnc(NC4(C)CC4)c13)C2` [Example 773, 5-[4-(Fluoromethoxy)-2-(methoxymethyl)-5H,6H,7H,8H-pyrido[3,4-d]pyrimidine-7-carbonyl]-6-methyl-N-(1-methylcyclopropyl)furo[2,3-d]pyrimidin-4-amine] here?
The IC50 was 10 to 100 nM.

For `Cc1oc2ncnc(NC3(C)CC3)c2c1C(=O)NC1(C2CC2)CCOCC1` [Example 129, N-(4-Cyclopropyloxan-4-yl)-6-methyl-4-[(1-methylcyclopropyl)amino]furo[2,3-d]pyrimidine-5-carboxamide], which IC50 is on record?
Its IC50 is 10 to 100 nM.

How did the IC50 turn out when `Cc1oc2ncnc(NC3(C)CC3)c2c1C(=O)N1CCOC(c2cnn(C)c2)C1` (stereo not drawn) [Example 121, 6-Methyl-5-[2-(1-methyl-1H-pyrazol-4-yl)morpholine-4-carbonyl]-N-(1-methylcyclopropyl)furo[2,3-d]pyrimidin-4-amine] was run?
The IC50 was 100 to 1000 nM.

With `Cc1oc2ncnc(NC3(C)CC3)c2c1C(=O)N(C)Cc1ccccn1` [Example 214, N,6-Dimethyl-4-[(1-methylcyclopropyl)amino]-N-(pyridin-2-ylmethyl)furo[2,3-d]pyrimidine-5-carboxamide] as the compound, how does the IC50 read?
Its IC50 is 100 to 1000 nM.

Which IC50 does the source give for `COC(=O)c1cnc(C2CN(C(=O)c3c(C)oc4ncnc(NC5(C)CC5)c34)C2)nc1` [Example 462, Methyl 2-(1-{6-methyl-4-[(1-methylcyclopropyl)amino]furo[2,3-d]pyrimidine-5-carbonyl}azetidin-3-yl)pyrimidine-5-carboxylate] here?
The IC50 was 100 to 1000 nM.

How did the IC50 turn out when `Cc1oc2ncnc(NC3(C)CC3)c2c1C(=O)N1CCc2nc(Cl)ncc2C1` [Example 289, 5-{2-Chloro-5H,6H,7H,8H-pyrido[4,3-d]pyrimidine-6-carbonyl}-6-methyl-N-(1-methylcyclopropyl)furo[2,3-d]pyrimidin-4-amine] was run?
Its IC50 is 10 to 100 nM.

Which IC50 does the source give for `Cc1oc2ncnc(NC3(C)CC3)c2c1C(=O)N1CCc2ncc(OCF)cc2C1` [Example 768, 5-[3-(Fluoromethoxy)-5,6,7,8-tetrahydro-1,6-naphthyridine-6-carbonyl]-6-methyl-N-(1-methylcyclopropyl)furo[2,3-d]pyrimidin-4-amine] here?
Its IC50 is 10 to 100 nM.

With `COCCn1ccc(NC(=O)c2c(C)oc3ncnc(NC4(C)CC4)c23)n1` [Example 440, N-[1-(2-Methoxyethyl)-1H-pyrazol-3-yl]-6-methyl-4-[(1-methylcyclopropyl)amino]furo[2,3-d]pyrimidine-5-carboxamide] as the compound, how does the IC50 read?
The IC50 was 10 to 100 nM.

Which IC50 does the source give for `Cc1oc2ncnc(NC3(C)CC3)c2c1C(=O)n1cc(-c2ccc(F)cc2)cn1` [Example 407, 5-[4-(4-Fluorophenyl)-1H-pyrazole-1-carbonyl]-6-methyl-N-(1-methylcyclopropyl)furo[2,3-d]pyrimidin-4-amine] here?
The IC50 was 10 to 100 nM.

With `CCCCCNC(=O)c1c(C)oc2ncnc(NC3(C)CC3)c12` [Example 167, 6-Methyl-4-[(1-methylcyclopropyl)amino]-N-pentylfuro[2,3-d]pyrimidine-5-carboxamide] as the compound, how does the IC50 read?
The IC50 was 10 to 100 nM.

For `COc1ccc(CCNC(=O)c2c(C)oc3ncnc(NC4(C)CC4)c23)cc1` [Example 619, N-[2-(4-Methoxyphenyl)ethyl]-6-methyl-4-[(1-methylcyclopropyl)amino]furo[2,3-d]pyrimidine-5-carboxamide], which IC50 is on record?
Its IC50 is 10 to 100 nM.

How did the IC50 turn out when `CCc1nc(C2CC2)n2c1CN(C(=O)c1c(C)oc3ncnc(NC4(C)CC4)c13)CC2` [Example 29, 5-{3-Cyclopropyl-1-ethyl-5H,6H,7H,8H-imidazo[1,5-a]pyrazine-7-carbonyl}-6-methyl-N-(1-methylcyclopropyl)furo[2,3-d]pyrimidin-4-amine] was run?
The IC50 was 100 to 1000 nM.

How did the IC50 turn out when `Cc1oc2ncnc(NC3(C)CC3)c2c1C(=O)Nc1cnn(CCN2CCOCC2)c1` [Example 421, 6-Methyl-4-[(1-methylcyclopropyl)amino]-N-{1-[2-(morpholin-4-yl)ethyl]-1H-pyrazol-4-yl}furo[2,3-d]pyrimidine-5-carboxamide] was run?
The IC50 was 10 to 100 nM.

How did the IC50 turn out when `Cc1oc2ncnc(NC3(C)CC3)c2c1C(=O)NCc1noc(C(F)(F)Cl)n1` [Example 626, N-{[5-(Chlorodifluoromethyl)-1,2,4-oxadiazol-3-yl]methyl}-6-methyl-4-[(1-methylcyclopropyl)amino]furo[2,3-d]pyrimidine-5-carboxamide] was run?
The IC50 was 10 to 100 nM.

For `Cc1cc(C)n(C(=O)c2c(C)oc3ncnc(NC4(C)CC4)c23)n1` [Example 411, 5-(3,5-Dimethyl-1H-pyrazole-1-carbonyl)-6-methyl-N-(1-methylcyclopropyl)furo[2,3-d]pyrimidin-4-amine], which IC50 is on record?
Its IC50 is 10 to 100 nM.

`Cc1noc(CNC(=O)c2c(C)oc3ncnc(NC4(C)CC4)c23)n1` [Example 627, 6-Methyl-N-[(3-methyl-1 2 4-oxadiazol-5-yl)methyl]-4-[(1-methylcyclopropyl)amino]furo[2,3-d]pyrimidine-5-carboxamide] was tested. Which IC50 did it give?
The IC50 was 10 to 100 nM.

With `Cc1oc2ncnc(NC3(C)CC3)c2c1C(=O)NCC1CCCO1` (stereo not drawn) [Example 175, 6-Methyl-4-[(1-methylcyclopropyl)amino]-N-(oxolan-2-ylmethyl)furo[2,3-d]pyrimidine-5-carboxamide] as the compound, how does the IC50 read?
Its IC50 is 10 to 100 nM.

With `Cc1oc2ncnc(NC3(C)CC3)c2c1C(=O)NCc1ccc(F)nc1` [Example 293, N-[(6-Fluoropyridin-3-yl)methyl]-6-methyl-4-[(1-methylcyclopropyl)amino]furo[2,3-d]pyrimidine-5-carboxamide] as the compound, how does the IC50 read?
The IC50 was 10 to 100 nM.

How did the IC50 turn out when `Cc1oc2ncnc(NC3(C)CC3)c2c1C(=O)Nc1ccn(C(C)C)n1` [Example 445, 6-Methyl-4-[(1-methylcyclopropyl)amino]-N-[1-(propan-2-yl)-1H-pyrazol-3-yl]furo[2,3-d]pyrimidine-5-carboxamide] was run?
Its IC50 is 10 to 100 nM.

With `Cc1oc2ncnc(NC3(C)CC3)c2c1C(=O)NCc1csc(N2CCOCC2)n1` [Example 739, 6-Methyl-4-[(1-methylcyclopropyl)amino]-N-{[2-(morpholin-4-yl)-1,3-thiazol-4-yl]methyl}furo[2,3-d]pyrimidine-5-carboxamide] as the compound, how does the IC50 read?
Its IC50 is 10 to 100 nM.

Which IC50 does the source give for `Cc1ccnc(CNC(=O)c2c(C)oc3ncnc(NC4(C)CC4)c23)n1` [Example 458, 6-Methyl-4-[(1-methylcyclopropyl)amino]-N-[(4-methylpyrimidin-2-yl)methyl]furo[2,3-d]pyrimidine-5-carboxamide] here?
Its IC50 is 10 to 100 nM.

How did the IC50 turn out when `Cc1oc2ncnc(NC3(C)CC3)c2c1C(=O)NCc1nnn(C)n1` [Example 738, 6-Methyl-N-[(2-methyl-2H-1,2,3,4-tetrazol-5-yl)methyl]-4-[(1-methylcyclopropyl)amino]furo[2,3-d]pyrimidine-5-carboxamide] was run?
Its IC50 is 10 to 100 nM.
